In patent publication US6414029B1, “Vanadium complexes of monohydroxamates and pharmaceutical compositions comprising them” (priority 1997, dated 2002):
Entries after “also recorded” stand apart in the source; their conditions may differ. Like-named read-outs stand apart in the source and are kept apart here.

How the values were obtained:
rat adipocytes = test: Lipogenesis bioassay ([U-14C]glucose incorporation into lipids) in rat adipocytes; format: cell-based; settings: for Synergizing effect relative to that exerted by Glu(γ)HXM: 1:1 molar ratio; for Synergizing effect relative to that exerted by Glu(γ)HXM / Potentiation of the insulinomimetic (lipogenic) efficacy of VOCl2, in words: vanadium (+4); for Percent of maximal effect of insulin, Amino acid-HXM only (10 μM): free amino acid monohydroxamate 10 μM, lipogenesis; for Net Potentiating Effect (%): potentiation of lipogenic capacity of VOCl2 10 μM by equimolar HXM; for Potentiation of the insulinomimetic (lipogenic) efficacy of VOCl2, in words: equimolar HXM
Description: The fat pads of male Wistar rats were cut into small pieces with scissors and suspended in 3 ml of KRB buffer. […] Five ml of buffer was then added, and the cells were passed through a mesh screen. The cells were then allowed to stand for several minutes in a 15-ml plastic test tube at room temperature, floating, and the buffer underneath was removed. This procedure (suspension, floating, and removal of buffer underneath) was repeated three times.
In the lipogenic assay, for measurement of glucose uptake and its incorporation into lipids (lipogenesis), the adipocyte suspensions (3×10^5 cells/ml) were divided into plastic vials (0.5 ml per vial) and incubated for 60 min at 37° C. under an atmosphere of carbogen with 0.2 mM [U-^14C]glucose (4-7 mCi/mol), in either the absence or presence of insulin (100 ng/ml), and the complexes to be tested.

[1] = system: isoproterenol mediated lipolysis; test: Inhibition of isoproterenol mediated lipolysis in vitro; format: cell-based
[2] = system: vanadium-enriched adipocytes; test: Lipogenesis in vanadium-enriched versus normal adipocytes; format: cell-based, rat; settings: rats given NaVO3 12 mg/kg/day s.c. for five days (FIG. 8)
Description: Lipogenesis was performed as described above using free Glu(γ)HXM to compare freshly prepared rat adipocytes (3×10^5 cells/ml) from non-enriched vanadium rats to the enriched-vanadium rats.

STZ-rats = test: Blood glucose level in streptozocin(STZ)-treated rats; format: in vivo, rat
Description: (b) Streptozocin(STZ)-treated rats: Diabetes was induced by a single intravenous injection of a freshly prepared solution of streptozocin (55 mg/kg of body weight) in 0.1 M citrate buffer (pH 4.5).
Each group received daily i.p. injections of 0.05 mmol/kg (at 11.00 a.m.), of the corresponding compound.

adipocytes = test: Hexose influx (2-deoxy-D-[6-3H]glucose) into adipocytes; format: cell-based, rat; settings: for Hexose influx, in words: two different concentrations (FIG. 4)
Description: In order to test the specific effect of free Glu(γ)HXM and the Glu(γ)HXM:NaVO3 (2:1) complex on the entrance of glucose into cells, an in vitro assay was performed using 2-deoxy-D-[6-^3H]glucose (2-DG). 2-DG is a non-metabolized analog of glucose and this assay thus represents the influence of a compound on glucose influx to cells, independent of glucose metabolism.
Aliquots (70 μl) of the aforementioned samples were transferred into tubes that contained 2-deoxy-D-[6-^3H]glucose (0.1 mM final concentration). After 3 minutes, phloretin ([…]) was added in order to terminate the penetration of 2-DG into the cells. Samples of the suspended cells were then transferred to tubes with silicone oil where, upon centrifugation, the cells separate from the KRB medium and leftover 2-DG.

leukemia L1210 cells = settings: in vitro; cited from earlier work
leukemia L1210 = settings: in vivo; cited from earlier work
melanoma B16 cells = settings: in vivo; cited from earlier work
InsRTK = InsRTK (Rattus norvegicus, UniProt P15127); settings: cited from earlier work
InsRTK, sequence (P15127 27-1383): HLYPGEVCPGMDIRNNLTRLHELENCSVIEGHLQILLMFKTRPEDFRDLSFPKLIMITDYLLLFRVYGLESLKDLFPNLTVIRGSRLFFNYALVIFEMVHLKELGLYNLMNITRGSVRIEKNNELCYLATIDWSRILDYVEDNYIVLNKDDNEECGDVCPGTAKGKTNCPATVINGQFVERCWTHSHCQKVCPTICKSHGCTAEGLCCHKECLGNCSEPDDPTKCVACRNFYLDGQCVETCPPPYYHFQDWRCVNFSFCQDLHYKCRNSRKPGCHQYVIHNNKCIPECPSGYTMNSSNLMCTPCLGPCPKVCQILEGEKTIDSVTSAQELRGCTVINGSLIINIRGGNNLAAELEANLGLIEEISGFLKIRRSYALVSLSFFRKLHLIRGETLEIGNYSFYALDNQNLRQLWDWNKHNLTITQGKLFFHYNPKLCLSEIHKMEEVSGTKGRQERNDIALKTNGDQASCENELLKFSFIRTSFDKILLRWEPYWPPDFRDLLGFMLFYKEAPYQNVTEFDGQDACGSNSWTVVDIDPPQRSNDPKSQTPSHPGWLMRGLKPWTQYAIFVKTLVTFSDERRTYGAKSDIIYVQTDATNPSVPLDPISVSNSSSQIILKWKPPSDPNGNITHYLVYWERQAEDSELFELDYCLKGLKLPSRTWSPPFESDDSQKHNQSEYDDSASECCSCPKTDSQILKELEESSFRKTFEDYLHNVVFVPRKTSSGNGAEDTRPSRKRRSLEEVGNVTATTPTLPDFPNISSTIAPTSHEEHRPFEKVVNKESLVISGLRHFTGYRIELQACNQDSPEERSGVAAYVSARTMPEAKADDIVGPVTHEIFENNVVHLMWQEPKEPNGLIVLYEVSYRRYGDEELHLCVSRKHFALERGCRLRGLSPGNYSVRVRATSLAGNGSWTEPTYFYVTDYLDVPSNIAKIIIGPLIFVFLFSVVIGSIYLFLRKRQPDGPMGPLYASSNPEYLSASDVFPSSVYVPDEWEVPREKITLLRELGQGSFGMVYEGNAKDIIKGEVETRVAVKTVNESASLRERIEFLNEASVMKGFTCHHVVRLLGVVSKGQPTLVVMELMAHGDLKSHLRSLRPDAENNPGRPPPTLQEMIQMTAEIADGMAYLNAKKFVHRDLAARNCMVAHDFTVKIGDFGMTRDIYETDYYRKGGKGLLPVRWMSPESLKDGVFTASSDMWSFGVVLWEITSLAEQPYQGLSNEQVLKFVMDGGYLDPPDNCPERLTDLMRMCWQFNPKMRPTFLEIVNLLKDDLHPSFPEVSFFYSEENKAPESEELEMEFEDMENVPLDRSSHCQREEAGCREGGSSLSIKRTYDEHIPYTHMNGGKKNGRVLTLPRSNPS

Friend leukemia cells = settings: in vitro; cited from earlier work
murine leukemia L5178Y [3] = settings: in vitro; cited from earlier work
murine leukemia L5178Y [4] = settings: in vivo; cited from earlier work
[5] = insulin 100 ng/ml, typical experiment

N[C@@H](CC(=O)NO)C(=O)O [L-Asp(β)HXM, L-aspartic acid β-monohydroxamate]
Synergizing effect relative to that exerted by Glu(γ)HXM (rat adipocytes): ~85% | Percent of maximal effect of insulin, Amino acid-HXM only (10 μM) (rat adipocytes): 8% | Net Potentiating Effect (%) (rat adipocytes): 54%

O=C(NO)c1cccnc1 [Nic-HXM, nicotinic acid hydroxamate]
Synergizing effect relative to that exerted by Glu(γ)HXM (rat adipocytes): ~57% | Percent of maximal effect of insulin, Amino acid-HXM only (10 μM) (rat adipocytes): 11% | Net Potentiating Effect (%) (rat adipocytes): 29%

NCCCC[C@H](N)C(=O)NO [Lys-HXM, L-lysine hydroxamate]
Percent of maximal effect of insulin, Amino acid-HXM only (10 μM) (rat adipocytes): 0% (−4%) | Net Potentiating Effect (%) (rat adipocytes): 0%

CC(=O)N[C@@H](CCC(=O)NO)C(=O)O [N-acetyl Glu(γ)HXM, N-acetyl-L-glutamic acid γ-monohydroxamate]
Percent of maximal effect of insulin, Amino acid-HXM only (10 μM) (rat adipocytes): 0% | Net Potentiating Effect (%) (rat adipocytes): 0% | Potentiation of the insulinomimetic (lipogenic) efficacy of VOCl2, in words (rat adipocytes): did not potentiate

N[C@H](CCC(=O)NO)C(=O)O [D-Glu(γ)HXM, D-glutamic acid γ-monohydroxamate]
Synergistic action with vanadium, stereospecificity, in words (rat adipocytes): not facilitated | Percent of maximal effect of insulin, Amino acid-HXM only (10 μM) (rat adipocytes): 1% | Net Potentiating Effect (%) (rat adipocytes): 0% | Potentiation of the insulinomimetic (lipogenic) efficacy of VOCl2, in words (rat adipocytes): did not potentiate

N[C@@H](CCC(=O)NO)C(=O)O [Glu(γ)HXM, L-glutamic acid γ-monohydroxamate]
Isoproterenol mediated lipolysis, in words [1]: inhibition of isoproterenol mediated lipolysis | Potentiation of intracellular vanadium in enriched-vanadium rat cells versus normal adipocytes, in words [2]: to a much greater extent | Elevation of the efficacy of vanadate to lower blood glucose levels (STZ-rats; STZ-treated diabetic rats): 5-7 fold | Glucose entry into cells, magnitude as % of maximal insulin response (adipocytes; 20 and 40 μM, 30 min preincubation (FIG. 4)): about 60% | Hexose influx, in words (adipocytes): stimulate hexose influx | Cytotoxicity, in words (leukemia L1210 cells): cytotoxic | Cytotoxicity, in words (leukemia L1210): cytotoxic | Lipogenesis in the absence of exogeneously added vanadium, in words (rat adipocytes; 10-100 μM (FIG. 6)): activates lipogenesis; also recorded: produce insulin effects | Percent of maximal effect of insulin, Amino acid-HXM only (10 μM) (rat adipocytes): 22% | Activation together with a saturated concentration of insulin, in words (rat adipocytes; in vitro): additive to maximal effect | Net Potentiating Effect (%) (rat adipocytes): 51% | Potentiation of vanadium (+5) in activating glucose metabolism in rat adipocytes (rat adipocytes; vanadium (+5)): 7-10 fold | Cytotoxicity, in words (melanoma B16 cells): cytotoxic

CC(C)(N)C(=O)NO [Aib-HXM, aminoisobutyric acid monohydroxamate]
Percent of maximal effect of insulin, Amino acid-HXM only (10 μM) (rat adipocytes): 0% (−3%) | Net Potentiating Effect (%) (rat adipocytes): 0%

Cl.Cl.[O]=[V] [VOCl2, vanadyl chloride]
Effect on blood glucose levels of STZ-rats, in words (STZ-rats; i.p. 0.02 mmol/kg/day, 12 days (FIG. 2)): no significant effect

N[C@@H](Cc1c[nH]c2ccccc12)C(=O)NO [Trp-HXM, L-tryptophan hydroxamate]
Percent of maximal effect of insulin, Amino acid-HXM only (10 μM) (rat adipocytes): 2% | Net Potentiating Effect (%) (rat adipocytes): ˜9%

insulin: Porcine insulin purchased from Eli Lilly Co.
Insulin-stimulated lipogenesis relative to basal (rat adipocytes; [5]): 4-5 fold | Vinsulin (rat adipocytes; [5]): 8,000-10,000 cpm per 3×10^5 cell/h

N=C(N)NCCC[C@H](N)C(=O)NO [Arg-HXM, L-arginine hydroxamate]
Percent of maximal effect of insulin, Amino acid-HXM only (10 μM) (rat adipocytes): 4% | Net Potentiating Effect (%) (rat adipocytes): ˜2%

L-histidine hydroxamate [His-HXM]
Percent of maximal effect of insulin, Amino acid-HXM only (10 μM) (rat adipocytes): 4% | Net Potentiating Effect (%) (rat adipocytes): ˜3%

CN[C@@H]1C[C@H]2O[C@@](C)([C@@H]1OC)n1c3ccccc3c3c4c(c5c6ccccc6n2c5c31)C(=O)NC4 [Staurosporine]
Ki (InsRTK): ~1 µM

N[C@H](CC(=O)NO)C(=O)O [D-Asp(β)HXM, D-Aspartic acid β-hydroxamate]
Activity against Friend leukemia cells, in words (Friend leukemia cells): active | Antitumoral activity, in words (murine leukemia L5178Y [3]): antitumoral activity | Antitumoral activity, in words (murine leukemia L5178Y [4]): antitumoral activity

sodium metavanadate [NaVO3]
Hexose influx, in words (adipocytes): stimulate hexose influx
